Source: US20030181380A1, “Modulating lymphoid commitment and survival” (priority 2002, published 2003)
Residues, ends and D or L forms follow the SMILES beside them. *: point of attachment. Cbz = O=C(OCc1ccccc1)*; CH2F = FC*

How the values were obtained:
[1] = test system: JM-1 cells; assay: Tamoxifen-inducible ICN1 (ICN1-ER-BD) in JM-1 subclones: PI, AnnexinV, RT-PCR; type: cell-based, human; settings: JM-1 subclones with tamoxifen-inducible ICN1
Text: To further characterize this effect, a retroviral vector containing a tamoxifen-inducible-ICN1 vector co-expressing GFP (ICN1+GFP) was stably transduced into three of the JM-1 human B-ALL leukemia/lymphoma′cell lines. To accomplish this, the estrogen receptor hormone-binding domain (ER-BD) was fused via a linker to ICN1. This fusion product was expressed on the MigR1 (MSCV-based) retroviral vector, which co-expresses GFP. JM-1 cells were transduced with this construct and subclones were selected for high expression. The GFP positive populations were sub cloned and individual clones expressing various levels of ICN1+GFP were analyzed after exposure to tamoxifen (FIG. 18A). Subclone JM-1.2 was exposed to tamoxifen and RT-PCR was performed (FIG. 18B). Growth arrest was shown by PI staining, apoptosis was measured by AnnexinV staining, and increased levels of Hairy expression were measured by RT-PCR. The percentage of non-GO/G1 cells was normalized to pre-treatment levels by duplicate experiments. The results of three experiments averaged ± standard deviation compared with EtOH control, and the average of duplicate experiments was relative to GAPDH expression and normalized to day 0 (pre-treatment) levels.
This effect was similar to the results seen with non-induced constructs.

[2] = test system: V9 cells; assay: AnnexinV staining of ICN1-transduced V9 cells cultured with caspase inhibitor; type: cell-based, murine
Description: Apoptosis is frequently mediated by caspases, a family of cysteine proteases, whose activation leads to cell death. To further characterize the ICN1-induced cell death, ICN1-transduced V9 cells were cultured with either the general caspase inhibitor, zVAD (50 μM in DMSO), or DMSO alone (zVAD vehicle only), and analyzed 22 and 44 hours later (FIG. 3B). When cultured in control media (no zVAD), the great majority of GFP+ cells became AnnexinV positive by 22 hours post transduction, and few GFP positive cells remained at 44 hours (FIG. 3B, middle panel).
This may due to the incomplete inhibition of zVAD on the targeted caspases or, alternatively, caspase-independent pathways also contribute the B cell death.

[3] = biological target: Notch receptors on human B-ALL cell line JM-1; assay: cell-based or functional assay

CC/C(=C(\c1ccccc1)c1ccc(OCCN(C)C)cc1)c1ccccc1 [tamoxifen]
cell cycle and apoptosis after induction [1]: cell cycle (growth) arrest and apoptosis

CC(NC(=O)C(NC(=O)OCc1ccccc1)C(C)C)C(=O)NC(CC(=O)O)C(=O)CF (stereo not drawn) [zVAD] (Cbz-Val-Ala-Asp-CH2F; configuration not given here)
ICN1-transduced cells becoming AnnexinV positive ([2]; 50 μM zVAD, 22 hours): only a few
protection of V9 cells from apoptosis ([2]; zVAD, up to 44 hours post-transduction): only partially protected

human Jagged1 (from UniProt P78504 34-1218) (ligand)
Hairy expression in B-ALL cells by RT-PCR at 24 hours of co-culture [3]: 5 fold

human Jagged2 (from UniProt Q9Y219 24-1238) (ligand)
Hairy expression in B-ALL cells by RT-PCR at 24 hours of co-culture [3]: 5 fold
